How the values were obtained:
[1] = tested on: phenyl-p-benzoquinone induced writhing; assay: mouse antiphenylquinone writhing test (prevention of phenyl-p-benzoquinone induced writhing; oral analgesic activity); assay type: in vivo, mouse (male CF1)
Description: Male CF1 mice obtained from Charles River Breeding Laboratories, fasted for 16-22 hours, and weighing 18-22 g at the time of testing are used throughout. All mice are dosed orally with acetaminophen and/or zomepirac (calculated as the sodium salt) dissolved completely in distilled water containing as vehicle 2% by volume of Tween 80®, a pharmacological dispersant manufactured by Fisher Scientific Company and containing 100% polysorbate 80. A dosing volume of 20 ml/kg is used. All doses are coded and the test is performed under a code not known to the observer.
A standard procedure for detecting and comparing the analgesic activity of different classes of analgesia drugs for which there is a good correlation with human efficacy is the prevention of phenyl-p-benzoquinone induced writhing in mice (H. Blumberg et al.; Proc. Soc. Exp. Biol. Med. 118, 763-766, 1965).
Mice, intubated with various doses of sodium zomepirac, acetaminophen, combined doses of sodium zomepirac and acetaminophen, or vehicle, are injected intraperitoneally with a challenge dose of phenyl-p-benzoquinone.The phenyl-p-benzoquinone is prepared as a 0.1 mg/ml solution in 5% by volume of ethanol in water; the writhing dose is 1.25 mg/kg injected at the rate of 0.25 ml/20 g. For scoring purposes a "writhe" is indicated by whole body stretching or contraction of the abdomen: mice are observed 10 minutes for the presence or absence of writhing beginning 5 minutes after receiving the phenyl-p-benzoquinone dose. Each mouse is used only once, then discarded.
In order to study the interaction between zomepirac and acetaminophen, precise dosage ratios of sodium zomepirac and acetaminophen are selected. Four to five coded doses of each selected combination are studied for analgesic effectiveness at 10 minutes using an experimental design which permits complete randomization of the separate dosage forms tested. Altogether 25 separate dosage forms are used and each form is represented in each experimental session. The experiments are continued by running experimental sessions with an equal number of mice being tested for each dosage group until the total number, N, of mice tested per group is 20.
In the drawing, the diagonal line joining the ED50 values of the two drugs given separately represents simple additivity of drug effects. The dashed lines on each side of the diagonal line give the 95% confidence limits for this line of additivity. […] The 3 diagonal lines radiating from the origin represent the dose ratios of sodium zomepirac to acetaminophen used in mice receiving the combined drug dosages.

[2] = tested on: phenyl-p-benzoquinone induced writhing; assay: as above; assay type: in vivo, mouse (male CF1); settings: 10 min, preliminary experiment, 95% confidence limits 0.80-1.69 (sodium zomepirac), 166-281 (acetaminophen)

Structure (SMILES) | ED50 at 10 Min. (95% Confidence limits), Sodium Zomepirac (alone or as component of the combination) ([1]; 10 min, N = 20 mice/dose, 95% limits on following lines: alone 1.09-2.12, 1:62.1 0.367-0.649, 1:186 0.204-0.365, 1:559 0.114-0.195) | % MICE BLOCKED ([1]; sodium zomepirac 0.29 + acetaminophen 0 mg/kg) | % MICE BLOCKED ([1]; sodium zomepirac 0.58 + acetaminophen 0 mg/kg) | % MICE BLOCKED ([1]; sodium zomepirac 1.16 + acetaminophen 0 mg/kg) | % MICE BLOCKED ([1]; sodium zomepirac 2.32 + acetaminophen 0 mg/kg) | % MICE BLOCKED ([1]; sodium zomepirac 4.64 + acetaminophen 0 mg/kg) | ED50 [2] | ED50 at 10 Min. (95% Confidence limits), Acetaminophen (alone or as component of the combination) ([1]; 10 min, N = 20 mice/dose, 95% limits on following lines: alone 162-309, 1:62.1 22.6-40.6, 1:186 37.7-68.5, 1:559 62.6-111) | % MICE BLOCKED ([1]; sodium zomepirac 0 + acetaminophen 54 mg/kg) | % MICE BLOCKED ([1]; sodium zomepirac 0 + acetaminophen 108 mg/kg) | % MICE BLOCKED ([1]; sodium zomepirac 0 + acetaminophen 216 mg/kg) | % MICE BLOCKED ([1]; sodium zomepirac 0 + acetaminophen 432 mg/kg)
Cc1cc(CC(=O)O)n(C)c1C(=O)c1ccc(Cl)cc1 [Sodium Zomepirac] | 1.52 mg/kg | 5% | 20% | 35% | 60% | 95% | 1.16 mg/kg |  |  |  |  | 
CC(=O)Nc1ccc(O)cc1 [Acetaminophen, N-(4-hydroxyphenyl)acetamide] |  |  |  |  |  |  | 216 mg/kg | 224 mg/kg | 10% | 30% | 45% | 75%
